Assay results: patent EP4596574A1, “GLP-1/GCG/GIP TRIPLE-RECEPTOR AGONIST AND USE THEREOF” (Sunshine Lake Pharma Co., Ltd., priority 2022, dated 2024)
Marks after values point to notes of the source that are not given here.

How the values were obtained:
GLP-1R = target: T1, GLP-1R (Homo sapiens, UniProt P43220); assay: In vitro cell activity, cAMP production in HEK293 cells expressing GLP-1R; format: cell-based
T1 construct: expressed in transfected cells; host or cells: HEK293 (HEK293-GLP-1R)
Procedure, shortened: (§1)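 Assay format: cells at 4×10^5 cells/mL, cAMP sensed by d2/cryptate FRET pair, dual-wavelength read at 665 and 620 nm. Potency expressed as EC50 from nonlinear fitting.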

GCGR = target: T2, GCGR (Homo sapiens, UniProt P47871); assay: In vitro cell activity, cAMP production in HEK293 cells expressing GCGR; format: cell-based
T2 construct: expressed in transfected cells; host or cells: HEK293 (HEK293-GCGR)
Procedure, shortened: as §1

[1] = Glucose tolerance assessment in normal C57BL/6 mice (Example 5); format: in vivo; settings: 3 nmol/kg s.c. single dose, 24 h after administration
Procedure, shortened: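 Normal C57BL/6 mice given a single dose, fasted 12 h starting 12 h post-dose, then challenged with 2 g/kg glucose i.p. Tail-vein glucose measured at baseline and 15, 30, 60, 90 min. AUC0~90min calculated from the glucose–time curve per dose group.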

GIPR = target: T3, GIPR (Homo sapiens, UniProt P48546); assay: In vitro cell activity, cAMP production in HEK293 cells expressing GIPR; format: cell-based
T3 construct: expressed in transfected cells; host or cells: HEK293 (HEK293-GIPR)
T3 sequence (P48546 22-466): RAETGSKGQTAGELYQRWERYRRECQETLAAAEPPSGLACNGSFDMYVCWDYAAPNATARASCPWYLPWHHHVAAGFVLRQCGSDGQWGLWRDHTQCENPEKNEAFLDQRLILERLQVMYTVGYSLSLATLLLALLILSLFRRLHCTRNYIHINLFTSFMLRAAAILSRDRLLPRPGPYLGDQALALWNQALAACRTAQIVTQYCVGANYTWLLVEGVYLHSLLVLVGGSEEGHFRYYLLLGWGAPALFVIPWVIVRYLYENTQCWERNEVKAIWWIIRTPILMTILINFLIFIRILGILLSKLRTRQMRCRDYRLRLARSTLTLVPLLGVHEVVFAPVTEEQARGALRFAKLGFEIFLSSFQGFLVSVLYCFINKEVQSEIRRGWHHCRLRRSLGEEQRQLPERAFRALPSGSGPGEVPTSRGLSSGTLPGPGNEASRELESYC
Procedure, shortened: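 cAMP accumulation is quantified by homogeneous TR-FRET (cAMP-d2 plus anti-cAMP cryptate) in GIPR-expressing HEK293 cells seeded from a 4×10^5 cells/mL suspension and treated with compound. The signal ratio is plotted against concentration and fitted to a four-parameter curve to give EC50.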

[2] = Pharmacokinetic study in rats, single subcutaneous injection; settings: male, Sprague Dawley, in vivo, sc, rat, 50 nmol/kg single subcutaneous injection, plasma
Procedure: The pharmacokinetic study of each polypeptide compound prepared in Example 1 was conducted using male Sprague Dawley rats. There were 3 male rats in each group. […] The dose was 50 nmol/kg, and a single subcutaneous injection was given (see Table 3 for specific peptide compounds). After administration, plasma was collected on the specified days and time points, and the concentration of each peptide compound in the plasma was detected by LC-MS/MS method. The pharmacokinetic parameters were obtained based on the concentration data, which were used to describe the pharmacokinetic properties of the peptide in rats after subcutaneous injection. Table 3: Summary of pharmacokinetic parameters of some triple-target peptides in rats

T1 sequence (P43220 24-463, species assumed): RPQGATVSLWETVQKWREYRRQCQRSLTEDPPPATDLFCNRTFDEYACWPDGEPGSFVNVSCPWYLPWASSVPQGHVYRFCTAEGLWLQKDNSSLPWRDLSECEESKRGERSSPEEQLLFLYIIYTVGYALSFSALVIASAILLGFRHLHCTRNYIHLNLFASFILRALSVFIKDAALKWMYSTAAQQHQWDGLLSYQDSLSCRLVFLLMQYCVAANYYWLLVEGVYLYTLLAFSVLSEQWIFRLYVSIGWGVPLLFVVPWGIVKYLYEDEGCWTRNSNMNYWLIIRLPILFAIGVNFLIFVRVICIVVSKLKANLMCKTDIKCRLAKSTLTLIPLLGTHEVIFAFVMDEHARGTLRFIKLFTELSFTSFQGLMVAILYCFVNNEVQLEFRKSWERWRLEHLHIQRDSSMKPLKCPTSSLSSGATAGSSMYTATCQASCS
T2 sequence (P47871 26-477, species assumed): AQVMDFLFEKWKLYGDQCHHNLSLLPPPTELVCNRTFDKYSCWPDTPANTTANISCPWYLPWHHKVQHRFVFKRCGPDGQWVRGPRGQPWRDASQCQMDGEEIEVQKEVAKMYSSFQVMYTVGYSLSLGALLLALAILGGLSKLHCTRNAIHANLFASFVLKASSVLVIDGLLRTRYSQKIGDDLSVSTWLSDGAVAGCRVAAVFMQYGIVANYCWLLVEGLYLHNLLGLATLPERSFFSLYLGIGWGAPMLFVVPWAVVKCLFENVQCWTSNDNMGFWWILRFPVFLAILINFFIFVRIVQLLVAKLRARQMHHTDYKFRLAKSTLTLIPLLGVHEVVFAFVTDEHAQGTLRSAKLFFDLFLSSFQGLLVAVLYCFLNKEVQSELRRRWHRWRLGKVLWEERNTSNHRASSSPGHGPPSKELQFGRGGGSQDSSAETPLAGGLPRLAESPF

## CC[C@H](C)[C@H](NC(=O)[C@H](Cc1ccccc1)NC(=O)[C@H](C)NC(=O)[C@H](CCCNC(=N)N)NC(=O)[C@H](CCC(N)=O)NC(=O)[C@H](CCCNC(=N)N)NC(=O)[C@H](CCCCNC(=O)COCCOCCNC(=O)CC[C@H](NC(=O)CCCCCCCCCCCCCCCCC(=O)O)C(=O)O)NC(=O)[C@H](CCC(=O)O)NC(=O)[C@H](CC(=O)O)NC(=O)[C@H](CC(C)C)NC(=O)[C@H](CC(C)C)NC(=O)[C@@H](NC(=O)[C@H](CO)NC(=O)[C@H](Cc1ccc(O)cc1)NC(=O)[C@H](CC(=O)O)NC(=O)[C@H](CO)NC(=O)[C@@H](NC(=O)[C@](C)(Cc1ccccc1F)NC(=O)[C@@H](NC(=O)CNC(=O)[C@H](Cc1c[nH]cn1)NC(=O)C(C)(C)NC(=O)[C@@H](N)Cc1ccc(O)cc1)[C@@H](C)O)[C@@H](C)O)[C@@H](C)CC)C(=O)N[C@@H](CCC(=O)O)C(=O)N[C@@H](Cc1ccc(O)cc1)C(=O)N[C@@H](CC(C)C)C(=O)N[C@@H](CC(C)C)C(=O)N[C@@H](C)C(=O)NCC(=O)NCC(=O)N1CCC[C@H]1C(=O)N[C@@H](CO)C(=O)N[C@@H](CO)C(=O)NCC(=O)N[C@@H](C)C(=O)N1CCC[C@H]1C(=O)N1CCC[C@H]1C(=O)N1CCC[C@H]1C(=O)N[C@@H](CO)C(=O)O [HEC-PT119]
GLP-1R
  EC50: 0.189 nM
GCGR
  EC50: 0.266 nM
[1]; 15 min after 2 g/kg glucose i.p.
  Blood glucose level (mM) 15 min: 14.0 ± 2.2 mM
[1]; 30 min after 2 g/kg glucose i.p.
  Blood glucose level (mM) 30 min: 10.8 ± 1.8 mM
[1]; 60 min after 2 g/kg glucose i.p.
  Blood glucose level (mM) 60 min: 7.8 ± 0.7 mM
[1]; 90 min after 2 g/kg glucose i.p.
  Blood glucose level (mM) 90 min: 6.7 ± 0.7 mM
[1]; basal before 2 g/kg glucose i.p.
  Blood glucose level (mM) 0 min: 4.1 ± 0.4 mM
[1]; blood glucose AUC, 2 g/kg glucose i.p.
  AUC0-90 min: 817.4±95.1^a
GIPR
  EC50: 0.0484 nM
[2]
  AUC(0-inf): 43800 ± 10700 ng·h/mL
  AUC(0-t): 43500 ± 10700 ng·h/mL
  Cmax: 974 ± 248 ng/mL
[2]; read-out: T1/2 (converted)
  half-life: 16 ± 1.6 h
[2]; read-out: Tmax
  Tmax: 19 ± 9.2 h
